Several values for one entry are separate records, joined by “and”; a condition that tells them apart may be missing. Identical values can stand only once.
Assay: Ex vivo biodistribution study in Sprague Dawley rats
Settings: SD rats
Experimental: To evaluate the kinetics and the tissue distribution of [^18F]FS1P1 in rodents, Sprague Dawley (SD) male rats (6-7 weeks old; 200-300 g) were used and euthanized at 5, 30, 60, and 120 min post-injection. The radioactivity uptake of each organ was calculated as percentage injected dose per gram (% ID/gram). As shown in FIG. 7A-FIG. 7B, the initial tracer uptake was high in most tissues at 5 min. The liver had the highest uptake (% ID/g) at 3.04±0.18, whereas the heart, lung, spleen, kidney, and small intestine had moderate to high uptake at 1.39±0.15, 1.44±0.13, 1.14±0.13, 1.76±0.15, and 1.00±0.21 respectively. The radioactivity was rapidly washed out from heart, lung, pancreas, spleen, kidney, and liver, at 30 min post injection with ID %/g values decreasing to 0.55±0.02, 0.84±0.05, 0.66±0.04, 0.54±0.03, 1.13±0.66, and 2.51±0.10 respectively as shown in FIG. 7A.
A dose of [^18F]FS1P1 (˜3.7 MBq/100 μL) was injected via the tail vein into SD rats (male; 6-7 weeks old; 200-300 g). Rats were euthanized under anesthesia at 5, 30, 60, and 120 min post-injection (n=4 per group). Tissues of interest including blood, heart, lung, muscle, fat, pancreas, spleen, kidney, liver, brain, bone, thymus, small intestine, and large intestine were collected, weighed, and counted on an automated Beckman Gamma counter (Beckman, Brea, CA). To evaluate the uptake of [^18F]FS1P1 within the brain, brain dissection was performed and different brain regions including brain stem, cerebellum, cortex, striatum, thalamus, and hippocampus were collected and evaluated. The uptake of each organ was calculated and expressed as a percentage of the injection dose per gram of wet tissue (% ID per gram).

## Cc1ccccc1-c1ccc(-c2nc(-c3ccc(CN(C)CCC(=O)O)c([18F])c3)no2)cc1C(F)(F)F [[^18F]FS1P1]
Blood, 5 min post-injection
  Tissue uptake (% ID/g): 0.16 ± 0.09 % ID/g
Blood, 30 min post-injection
  Tissue uptake (% ID/g): 0.13 ± 0.01 % ID/g
Blood, 60 min post-injection
  Tissue uptake (% ID/g): 0.13 ± 0.01 % ID/g
Blood, 120 min post-injection
  Tissue uptake (% ID/g): 0.10 ± 0.01 % ID/g
Bone, 5 min post-injection
  Tissue uptake (% ID/g): 0.20 ± 0.13 % ID/g
Bone, 30 min post-injection
  Tissue uptake (% ID/g): 0.16 ± 0.01 % ID/g
Bone, 60 min post-injection
  Tissue uptake (% ID/g): 0.15 ± 0.02 % ID/g
Bone, 120 min post-injection
  Tissue uptake (% ID/g): 0.11±0.02 % ID/g
Brain stem, 5 min post-injection
  Tissue uptake (% ID/g): 0.48 ± 0.14 % ID/g
Brain stem, 30 min post-injection
  Tissue uptake (% ID/g): 0.52 ± 0.03 % ID/g
Brain stem, 60 min post-injection
  Tissue uptake (% ID/g): 0.68 ± 0.07 % ID/g
Brain stem, 120 min post-injection
  Tissue uptake (% ID/g): 0.71 ± 0.11 % ID/g
Cerebellum, 5 min post-injection
  Tissue uptake (% ID/g): 0.42 ± 0.28 % ID/g
Cerebellum, 30 min post-injection
  Tissue uptake (% ID/g): 0.52 ± 0.05 % ID/g
Cerebellum, 60 min post-injection
  Tissue uptake (% ID/g): 0.66 ± 0.07 % ID/g
Cerebellum, 120 min post-injection
  Tissue uptake (% ID/g): 0.77 ± 0.12 % ID/g
Cortex, 5 min post-injection
  Tissue uptake (% ID/g): 0.35 ± 0.25 % ID/g
Cortex, 30 min post-injection
  Tissue uptake (% ID/g): 0.51 ± 0.07 % ID/g
Cortex, 60 min post-injection
  Tissue uptake (% ID/g): 0.59 ± 0.13 % ID/g
Cortex, 120 min post-injection
  Tissue uptake (% ID/g): 0.67 ± 0.10 % ID/g
Fat, 5 min post-injection
  Tissue uptake (% ID/g): 0.05 ± 0.03 % ID/g
Fat, 30 min post-injection
  Tissue uptake (% ID/g): 0.16 ± 0.02 % ID/g
Fat, 60 min post-injection
  Tissue uptake (% ID/g): 0.15 ± 0.02 % ID/g
Fat, 120 min post-injection
  Tissue uptake (% ID/g): 0.14 ± 0.02 % ID/g
Heart, 5 min post-injection
  Tissue uptake (% ID/g): 1.02 ± 0.69 % ID/g
Heart, 30 min post-injection
  Tissue uptake (% ID/g): 0.55±0.02 % ID/g and 0.54 ± 0.03 % ID/g
Heart, 60 min post-injection
  Tissue uptake (% ID/g): 0.49 ± 0.02 % ID/g
Heart, 120 min post-injection
  Tissue uptake (% ID/g): 0.39 ± 0.07 % ID/g
Hippocampus, 5 min post-injection
  Tissue uptake (% ID/g): 0.32 ± 0.21 % ID/g
Hippocampus, 30 min post-injection
  Tissue uptake (% ID/g): 0.41 ± 0.03 % ID/g
Hippocampus, 60 min post-injection
  Tissue uptake (% ID/g): 0.54 ± 0.03 % ID/g
Hippocampus, 120 min post-injection
  Tissue uptake (% ID/g): 0.42 ± 0.28 % ID/g
Kidney, 5 min post-injection
  Tissue uptake (% ID/g): 1.33 ± 0.87 % ID/g
Kidney, 30 min post-injection
  Tissue uptake (% ID/g): 1.13±0.66 % ID/g and 1.13 ± 0.13 % ID/g
Kidney, 60 min post-injection
  Tissue uptake (% ID/g): 1.10 ± 0.08 % ID/g
Kidney, 120 min post-injection
  Tissue uptake (% ID/g): 1.02 ± 0.17 % ID/g
Liver, 5 min post-injection
  Tissue uptake (% ID/g): 2.30 ± 1.50 % ID/g
Liver, 30 min post-injection
  Tissue uptake (% ID/g): 2.51±0.10 % ID/g and 2.51 ± 0.20 % ID/g
Liver, 60 min post-injection
  Tissue uptake (% ID/g): 2.32 ± 0.10 % ID/g
Liver, 120 min post-injection
  Tissue uptake (% ID/g): 2.08 ± 0.47 % ID/g
Lung, 5 min post-injection
  Tissue uptake (% ID/g): 1.08 ± 0.74 % ID/g
Lung, 30 min post-injection
  Tissue uptake (% ID/g): 0.84±0.05 % ID/g and 0.84 ± 0.09 % ID/g
Lung, 60 min post-injection
  Tissue uptake (% ID/g): 0.68 ± 0.04 % ID/g
Lung, 120 min post-injection
  Tissue uptake (% ID/g): 0.43 ± 0.30 % ID/g
Muscle, 5 min post-injection
  Tissue uptake (% ID/g): 0.11 ± 0.07 % ID/g
Muscle, 30 min post-injection
  Tissue uptake (% ID/g): 0.19 ± 0.01 % ID/g
Muscle, 60 min post-injection
  Tissue uptake (% ID/g): 0.18 ± 0.05 % ID/g
Muscle, 120 min post-injection
  Tissue uptake (% ID/g): 0.15 ± 0.02 % ID/g
Pancreas, 5 min post-injection
  Tissue uptake (% ID/g): 0.72 ± 0.47 % ID/g
Pancreas, 30 min post-injection
  Tissue uptake (% ID/g): 0.66±0.04 % ID/g and 0.66 ± 0.08 % ID/g
Pancreas, 60 min post-injection
  Tissue uptake (% ID/g): 0.52 ± 0.05 % ID/g
Pancreas, 120 min post-injection
  Tissue uptake (% ID/g): 0.43 ± 0.06 % ID/g
In words
  in vivo defluorination (bone uptake 5 to 120 min): no defluorination
Small intestine, 5 min post-injection
  Tissue uptake (% ID/g): 0.75 ± 0.57 % ID/g
Small intestine, 30 min post-injection
  Tissue uptake (% ID/g): 1.40 ± 0.36 % ID/g
Small intestine, 60 min post-injection
  Tissue uptake (% ID/g): 1.42 ± 0.36 % ID/g
Small intestine, 120 min post-injection
  Tissue uptake (% ID/g): 0.87 ± 0.21 % ID/g
Spleen, 5 min post-injection
  Tissue uptake (% ID/g): 0.86 ± 0.58 % ID/g
Spleen, 30 min post-injection
  Tissue uptake (% ID/g): 0.54±0.03 % ID/g and 0.54 ± 0.06 % ID/g
Spleen, 60 min post-injection
  Tissue uptake (% ID/g): 0.47 ± 0.05 % ID/g
Spleen, 120 min post-injection
  Tissue uptake (% ID/g): 0.37 ± 0.05 % ID/g
Striatum, 5 min post-injection
  Tissue uptake (% ID/g): 0.32 ± 0.21 % ID/g
Striatum, 30 min post-injection
  Tissue uptake (% ID/g): 0.46 ± 0.05 % ID/g
Striatum, 60 min post-injection
  Tissue uptake (% ID/g): 0.43 ± 0.29 % ID/g
Striatum, 120 min post-injection
  Tissue uptake (% ID/g): 0.67 ± 0.07 % ID/g
Thymus, 5 min post-injection
  Tissue uptake (% ID/g): 0.23 ± 0.16 % ID/g
Thymus, 30 min post-injection
  Tissue uptake (% ID/g): 0.30 ± 0.03 % ID/g
Thymus, 60 min post-injection
  Tissue uptake (% ID/g): 0.30 ± 0.04 % ID/g
Thymus, 120 min post-injection
  Tissue uptake (% ID/g): 0.31 ± 0.05 % ID/g
5 min post-injection
  rat brain uptake: 0.48±0.06 ID %/g
30 min post-injection
  rat brain uptake: 0.48±0.02 ID %/g
60 min post-injection
  rat brain uptake: 0.60±0.04 ID %/g
120 min post-injection
  rat brain uptake: 0.65±0.03 ID %/g
thalamus, 5 min post-injection
  Tissue uptake (% ID/g): 0.42 ± 0.31 % ID/g
thalamus, 30 min post-injection
  Tissue uptake (% ID/g): 0.53 ± 0.03 % ID/g
thalamus, 60 min post-injection
  Tissue uptake (% ID/g): 0.64 ± 0.06 % ID/g
thalamus, 120 min post-injection
  Tissue uptake (% ID/g): 0.70 ± 0.15 % ID/g
Total brain, 5 min post-injection
  Tissue uptake (% ID/g): 2.65 ± 1.63 % ID/g
Total brain, 30 min post-injection
  Tissue uptake (% ID/g): 3.41 ± 0.29 % ID/g
Total brain, 60 min post-injection
  Tissue uptake (% ID/g): 4.12 ± 0.70 % ID/g
Total brain, 120 min post-injection
  Tissue uptake (% ID/g): 4.58 ± 0.92 % ID/g
